The results in this text go back to patent publication US20160130352A1, “RHAMM, A CO-RECEPTOR AND ITS INTERACTIONS WITH OTHER RECEPTORS IN CANCER CELL MOTILITY AND THE IDENTIFICATION OF CANCER PROGNITOR CELL POPULATIONS” (THE REGENTS OF THE UNIVERSITY OF CALIFORNIA, priority 2006, published 2016).

One may read the Cmax as the peak of the concentration-time curve. In general, Tmax refers to the time from dosing to the highest level.

For one data set, the system named is MDA-MB-231 cells. The data set can be described thus: Time-lapse cinemicrography random motility. The data set is classed as cell-based, human. How it is done: (§1) Random motility analyses were performed to quantify the effect of the blocking Rhamm and CD44 antibodies, HA binding peptide, hyaluronan, and the MEK inhibitor, PD098059 on cell motility. Cells were seeded on T-25 flasks (Costar, Cambridge. Mass.) at 1×10^5 cells/flask. Cells were incubated with anti-Rhamm antibody (30 μg/ml), anti-CD44 antibody (30 μg/ml), a mixture of anti-Rhamm (30 μg/ml) and anti-CD44 antibodies ([…]), HA binding peptide (1 μg/ml) or its scrambled control (1 μg/ml), and/or 50 μM PD098059 for 30 minutes prior to filming. Alternatively, cells were stimulated with 50 μg/L of HA immediately prior to filming. As a control, a mixture of mouse and rabbit IgG (30 μg/ml each), DMSO (for PD098059) or PBS (for HA) were used. Cell locomotion was monitored for a period of 6 hours using a 10× modulation objective (Zeiss, Germany) attached to a Zeiss Axiovert 100 inverted microscope equipped with Hoffman Modulation contrast optical filters (Greenvale, N.Y.) and a 37° C. heated stage. Cell images were captured with a CCD video camera module attached to a Hamamatsu CCD camera controller. Motility was assessed using Northern Exposure 2.9 image analysis software (Empix Imaging, Mississauga, Ontario). Nuclear displacement of 20-30 cells was measured and data were subjected to statistical analysis (see below). Each experiment was repeated at least three times. PD098059 MEK inhibitor was used to test the involvement of the MAP kinase pathway in the motility of these cells. The cells were incubated with the MEK1 inhibitor at 50 μM in complete culture medium 30 minutes before the beginning of motility filming. DMSO alone was used as a control. The results of motility analyses were expressed as means (μm/hour) means±standard deviations, unless otherwise indicated.

In another data set the test system is MCF7 cells. The data set can be described thus: Time-lapse cinemicrography random motility. The data set is classed as cell-based, human. The note with it: for motility: peptide 1 μg/ml, 30 minutes prior to filming. On the procedure: as §1, with “Alternatively, cells were stimulated with 50 μg/L of HA immediately prior to filming.” left out
Details of data set [1]: species or system mice. The note with it: mouse, in vivo, iv. From the text:
J Am Chem Soc. 125(25): p. 7494-5, hereby incorporated by reference), MDA-MB-231 breast tumor xenografts which express high levels of Rhamm and CD44 (FIG. 2A) and the liver, whose endothelial cells express the HA endocytic receptor, Hare (See FIG. 13D and Weigel, P. H. and J. H. Yik, 2002. Glycans as endocytosis signals: the cases of the asialoglycoprotein and hyaluronan/chondroitin sulfate receptors. Biochim Biophys Acta. 1572(2-3): p. 341-63).

Data set [2] is described as follows: Pharmacokinetic parameters of HA in serum by route of administration (competitive binding ELISA). The data set is classed as in vivo. From the text: Table 2 below is a summary of the kinetic analysis of HA in serum by different routes of administration.
On the technique in general: ELISA stands for enzyme-linked immunosorbent assay.

Data set [3] in a line: Kinetics and tolerability of HA injected I.V. in rats. The note with it: I.V. 1-12 mg/kg. The data set is classed as in vivo.
Details of data set [4]: species or system humans. The note with it: human, in vivo, iv.
Setting [5] is: PD098059 50 μM and/or anti-Rhamm antibodies.
Setting [6] is: serum starved 24-48 hours, 25-50 μg/ml exogenous HA.
Setting [7] is: peptide 1 μg/ml, 30 minutes prior to filming.

Where two headings read alike, the source gives them in different places.

Turning to `COc1cccc(-c2cc(=O)c3ccccc3o2)c1N` [PD098059], in the data set with MDA-MB-231 cells (setting [5]), the basal motility rate result is listed as “significantly inhibited”. In addition, the basal motility entry in the data set with MCF7 cells (setting [5]) is on record as “no effect”.
Consider Hyaluronan [HA], for which the half-life entry in data set [1] and in data set [4] was “up to 12 hrs” throughout. Also, the motility entry in the data set with MDA-MB-231 cells (setting [6]) is listed as “significantly stimulated motility”. For the same compound, the Cmax in data set [2] (Intravenous) was 5096.00 µg/mL; in data set [2] (Oral), 0.15 µg/mL; in data set [2] (Subcutaneous), 1454.00 µg/mL. In addition, the Tmax amounted to 12 h in data set [2] (Intravenous), 36 h in data set [2] (Oral) and 72 h in data set [2] (Subcutaneous). The motility rate result in the data set with MCF7 cells (setting [6]) is listed as “no effect”. In addition, in data set [3], the tolerability result was “well tolerated”. Besides, the “T1/2 (HA serum levels)” value in data set [4] (1.5 mg/kg) is 12 h.
YKQKIKHVVKLK [HA-binding peptide]: the motility entry is given as “significantly reduced motility” with MDA-MB-231 cells (setting [7]) and “no effect” with MCF7 cells.
Take “YLKQKKVKKHIV [scrambled control peptide]”: the motility entry in the data set on MDA-MB-231 cells (setting [7]) and in the data set on MCF7 cells was “no effect” each time.
